Reference: publication PMC11259710, “Distinct roles of the major binding residues in the cation-binding pocket of the melibiose transporter MelB” (The Journal of Biological Chemistry, 2024)
Read-outs that look alike come from different tables or passages of the source.

Legend:
[1] = system: D55C MelBSt expressed in E. coli DW2 cells; test: [3H]melibiose transport assay in intact E. coli DW2 cells, CCCP effect, D55C MelBSt; format: cell-based, Salmonella enterica serovar Typhimurium; settings: D55C mutant
Protocol: (§1) E. coli DW2 cells transformed with a given plasmid were grown in Luria-Bertani (LB) broth with 100 mg/L ampicillin in a 37 °C shaker. The overnight cultures were diluted by 5% to fresh LB broth with 0.5% glycerol and 100 mg/L ampicillin and shaken at 30 °C for 5 h. The cells were washed with 50-ml 100 mM KPi, pH 7.5 three times, followed by washing with the assay buffer (100 mM KPi, pH 7.5, 10 mM MgSO4). The cell pellets were resuspended and adjusted to A420 = 10 (∼0.7 mg proteins/ml) with the assay buffer. The transport assay was performed at 0.4 mM [^3H]melibiose (specific activity of 10 mCi/mmol) in the absence of Na^+ and Li^+ or the presence of Na^+ or Li^+ as described ([4], [35]) to test the three transport model coupling to H^+, Na^+, or Li^+, respectively. The transport time courses were carried out by quenching the cells at zero, 5 s, 10 s, 30 s, 1 m, 2 m, 5 m, 10 m, and 30 m by dilution and fast filtration. The filters were subjected to radioactivity measurements using a liquid scintillation counter.
(§2) The CCCP effect on the transport activity at varied pH conditions in the absence of Na^+ and Li^+ was conducted by incubating the extensively washed Na^+-free, Li^+-free cells with 10 μM CCCP for 10 min prior to the transport assay.
(§3) E. coli DW2 cells expressing the WT MelBSt, D55C, or D59C mutants were prepared as described above. […]

[2] = system: WT MelBSt expressed in E. coli DW2 cells; test: [3H]melibiose transport assay in intact E. coli DW2 cells, CCCP effect, WT MelBSt; format: cell-based, Salmonella enterica serovar Typhimurium
Protocol: as §1, §2, §3

[3] = molecular target: T1, WT MelBSt (Salmonella typhimurium, UniProt P30878); settings: cited from earlier work
T1 construct: His10 (C); made in house; host or cells: E. coli DW2

[4] = molecular target: T2, D55C MelBSt mutant (Salmonella typhimurium, UniProt P30878, D55C); format: binding, Salmonella enterica serovar Typhimurium; settings: for Cation binding by ITC: 40 mM NaCl or LiCl titrant, absence or presence of saturating melibiose; for Kd: ITC 25 °C
T2 construct: His10 (C); made in house; host or cells: E. coli DW2
Protocol: All ITC ligand-binding assays were performed with the TA Instruments (Nano-ITC device) as described ([15]), which yields the exothermic binding as a positive peak. […] MelBSt protein samples were buffer-matched to the assay buffer by dialysis.
(§4) All samples were degassed using a TA Instruments Degassing Station (model 6326) for 15 min. During the titration, the heat changes were collected at 25 °C, and data processing was performed with the NanoAnalyze (version 3.7.5 software) provided with the instrument. The normalized heat changes were subtracted from the heat of dilution elicited by the last few injections, where no further binding occurred, and the corrected heat changes were plotted against the mole ratio of titrant versus titrand. The binding association constant (Ka) values were obtained by fitting the data using the one-site independent-binding model included in the NanoAnalyze software (version 3.7.5).

[5] = molecular target: T1, WT MelBSt; test: ITC ligand-binding assay, purified WT MelBSt; design: species or system Salmonella enterica serovar Typhimurium; settings: for Kd: ITC, read-out: Kd of melibiose binding
Protocol: All ITC ligand-binding assays were performed with the TA Instruments (Nano-ITC device) as described ([15]), which yields the exothermic binding as a positive peak. In a typical experiment, the titrand (MelBSt) placed in the ITC Sample Cell was titrated with the specified titrant Na^+, Li^+, melibiose, or α-NPG (placed in the Syringe) in the assay buffer by an incremental injection of 2-μL aliquots at an interval of 300 s at a constant stirring rate of 250 rpm (nano-ITC). MelBSt protein samples were buffer-matched to the assay buffer by dialysis. For measuring Na^+ or Li^+ binding, 100 mM choline chloride was supplemented into the Na^+-free buffer.
as §4

[6] = molecular target: Asp59 (UniProt position 59, WDAINDPIMGW); test: ITC; settings: cited from earlier work
[7] = 10 μM CCCP, all tested external pH conditions, zero, 2 m, 10 m
[8] = cells pre-incubated with 10 μM CCCP, 0.4 mM melibiose, no Na+ and Li+, pH 7.5
[9] = pH 7.5, 100 mM Na+ vs no Na+, from Kd values of ref [8]

## N#CC(C#N)=NNc1cccc(Cl)c1 [CCCP, carbonyl cyanide m-chlorophenylhydrazone]
[1]; [7]
  CCCP effect on melibiose transport at varied external pH: completely abolished
[1]; [8]
  CCCP effect on H+-coupled melibiose transport activity: completely inhibited
[2]; [7]
  CCCP effect on melibiose transport at varied external pH: completely abolished
[2]; [8]
  CCCP effect on H+-coupled melibiose transport activity: completely inhibited

## [H+] [H^+]
[3]; absence of melibiose, ref [15]
  absolute dissociation constant for H+ (pKa value): 6.25
[3]; absence of melibiose, ref [15], read-out: absolute KD(H+)
  Kd: 0.56 µM
[3]; melibiose and H+, based on the effect of sugar on the H+ affinity, ref [15]
  Cooperativity number: less than 2
[3]; presence of melibiose, ref [15]
  absolute dissociation constant for H+ (pKa value): 6.5
[3]; presence of melibiose, ref [15], read-out: absolute KD(H+)
  Kd: 0.26 µM

## [Li+] [Li^+]
[3]; melibiose and Li+, ref [6]
  Cooperativity number (ratio of Kd values of melibiose and cation in absence or presence of the other): ~5
[4]
  Cation binding by ITC: eliminated the binding

## OC[C@H]1O[C@H](OCC2O[C@@H](O)[C@H](O)[C@@H](O)[C@@H]2O)[C@H](O)[C@@H](O)[C@H]1O (stereo partly drawn) [Melibiose, melibiose]
[5]; pH 6.25, Na+-free buffer
  Kd: 6190 ± 590 µM
[5]; pH 6.25 vs pH 8.5, no Na+
  Affinity change of melibiose with pH: +1.37-fold
[5]; [9]
  Affinity change of melibiose with Na+: +8.51-fold
[5]; pH 7.5, 100 mM Na+ vs no Na+, from Kd values of ref [8], listed as melibiose
  Affinity change of melibiose with Na+: 8.51 fold
[5]; pH 8.5, Na+-free buffer
  Kd: 8500 ± 210 µM
[3]; WT MelBSt, pH 7.5, 100 mM Na+, ITC 25 °C, ref [8], read-out: Kd of melibiose binding
  Kd: 1090 ± 60 µM
[3]; WT MelBSt, pH 7.5, no Na+, ITC 25 °C, ref [8], read-out: Kd of melibiose binding
  Kd: 9280 ± 230 µM
[4]; pH 7.5, 100 mM Na+ vs no Na+
  Affinity change of melibiose with Na+: +1.14-fold
[4]; pH 7.5, 100 mM Na+, read-out: Kd of melibiose binding
  Kd: 5090 ± 150 µM
[4]; pH 7.5, no Na+, read-out: Kd of melibiose binding
  Kd: 5820 ± 460 µM

## [Na+] [Na^+]
[3]; melibiose and Na+, ref [15]
  Cooperativity number (ratio of Kd values of melibiose and cation in absence or presence of the other): approximately 8
[4]
  Cation binding by ITC: eliminated the binding

## O=[N+]([O-])c1ccc(O[C@H]2O[C@H](CO)[C@H](O)[C@H](O)[C@H]2O)cc1 [α-NPG, 4-nitrophenyl-α-D-galactopyranoside]
[5]; [9]
  Affinity change of α-NPG with Na+: + 1.68-fold
[3]; WT MelBSt, pH 7.5, 100 mM Na+, ITC, ref [8], read-out: Kd of α-NPG binding
  Kd: 25.7 ± 4.42 µM
[3]; WT MelBSt, pH 7.5, no Na+, ITC, ref [8], read-out: Kd of α-NPG binding
  Kd: 43.2 ± 0.62 µM
[4]; pH 7.5, 100 mM Na+, read-out: Kd of α-NPG binding
  Kd: 13.5 ± 1.38 µM
[4]; pH 7.5, no Na+, read-out: Kd of α-NPG binding
  Kd: 15.1 ± 1.86 µM

## Melibiose permease MelB (MelBSt) (Salmonella enterica serovar Typhimurium)
[6]; Melibiose present (per the Introduction). The Discussion sentence does not specify the sugar state.
  pKa: approximately 6.5
[6]; No melibiose, no Na+/Li+ bound
  pKa: 6.25
